Reference: ChEMBL document CHEMBL1159208, “The structures and cytotoxic properties of polyketide peroxides from a Plakortis sponge” (J Nat Prod, 1995)
The source made the active and inactive calls. The calls are words filed in the database; no cut-off is given here.

Test system: NCI60
Assay: Cytotoxicity against human NCI60 cells
Type: functional, cell-based

Compound	Activity
C[C@]1(CCCCCCCCc2ccccc2)CC[C@](C)(CCC(=O)O)OO1	inactive
C[C@]1(CCCCCCCCCCc2ccccc2)C[C@@]2(C)OC(=O)C[C@H]2O1	inactive
